Like-named read-outs stand apart in the source and are kept apart here.
Tests used:
[1] = test system: HeLa cells; assay: MTT antiproliferative assay, HeLa; format: cell-based, human; details: 72 h; for inhibition at 10 µM / inhibition at 30 µM: read-out: Growth Inhibition (%) ± SEM; for IC50: read-out: Calculated IC50 Value
Method: (§1) The isolated phenanthrenes (Compounds 1–9) were tested for their antiproliferative activity against three human tumor cell lines (HeLa and SiHa (cervix adenocarcinoma) and A2780 (ovarian carcinoma)) using the 3-(4,5-dimethylthiazol-2-yl)-2,5-diphenyltetrazolium bromide (MTT) test with cisplatin as a positive control (Table 3). […] Based on the presented results, some structure-activity relationships could be obtained. […] Compounds bearing free hydroxy groups (in case of Compound 3) exerted more pronounced action than its methyl ether (Compound 7) or its oxymethylene derivative (Compound 6). The substantial difference in the activities of the isolated dimers (Compounds 2 and 8) could be attributed to the presence of a methyl group at C-6, which is favored in the monomers, too. Both the other cell lines were substantially less sensitive. […] Similarly, none of the presented agents elicited substantial (>40%) inhibition of the cell cancer proliferation during the applied 72 h of incubation against SiHa cells at 10 μM, and therefore, IC50 values were not determined.
(§2) The antiproliferative properties of the isolated phenanthrenes were determined on a panel of human malignant cell lines isolated from cervical (HeLa and SiHa) and ovarian cancers (A2780) purchased from the European Collection of Cell Cultures (ECCAC, Salisbury, UK). Cells were cultivated in minimal essential medium supplemented with 10% fetal bovine serum, 1% non-essential amino acids and an antibiotic-antimycotic mixture. All media and supplements were obtained from Lonza Group Ltd., (Basel, Switzerland). Near-confluent cancer cells were seeded onto a 96-well microplate (5000 cells/well) and after an overnight standing, medium containing the tested compounds at 10 and 30 µM was added. After incubation for 72 h under cell culture conditions, the living cells were assayed by the addition of 20 µL of 5 mg/mL 3-(4,5-dimethylthiazol-2-yl)-2,5-diphenyltetrazolium bromide (MTT) solution. MTT was converted by intact mitochondrial enzymes and precipitated as purple crystals during a 4 h contact period. The medium was then removed and the formazan was dissolved in 100 µL of DMSO during a 60 min period of shaking at 37 °C. Finally, the reduced MTT was assayed at 545 nm using a microplate reader. […] All in vitro experiments were carried out on two microplates with five parallel wells. Stock solutions of the tested compounds (10 mM) were prepared in DMSO. […] Cisplatin (Ebewe Pharma GmbH, Unterach, Austria) was used as a reference agent.

[2] = test system: SiHa cells; assay: MTT antiproliferative assay, SiHa; format: cell-based, human; details: 72 h; for inhibition at 10 µM / inhibition at 30 µM: Homo sapiens, read-out: Growth Inhibition (%) ± SEM
Method: as §1, §2

[3] = test system: A2780 cells; assay: MTT antiproliferative assay, A2780; format: cell-based, human; details: for inhibition at 10 µM / inhibition at 30 µM: read-out: Growth Inhibition (%) ± SEM; for IC50: read-out: Calculated IC50 Value
Method: as §1, §2

[4] = test system: MCF-7 cells; design: method as in PMID 23979834; details: read-out: cytotoxic activity; cited from earlier work
[5] = test system: HeLa cells; design: method as in PMID 23979834; details: read-out: cytotoxic activity; cited from earlier work
[6] = test system: HSV-2; design: method as in PMID 11463529; details: 6.25 µM; cited from earlier work
[7] = test system: HepG2 (liver hepatocellular carcinoma); design: method as in PMID 26584913; details: cited from earlier work
[8] = test system: HeLa cells; design: method as in PMID 26584913; details: cited from earlier work
[9] = test system: HepG2; design: method as in PMID 26072042; details: HepG2, CCK-8 assay; cited from earlier work
[10] = test system: MCF-7; design: method as in PMID 26072042; details: MCF-7, CCK-8 assay; cited from earlier work
[11] = test system: SMMC-7721; design: method as in PMID 26072042; details: SMMC-7721, CCK-8 assay; cited from earlier work
[12] = test system: MCF-7 cells; design: method as in PMID 26584913; details: cited from earlier work
[13] = Homo sapiens, A2780, 10 μM, 72 h, MTT
[14] = Homo sapiens, A2780, 30 μM, 72 h, MTT

IC50 ([1]; Homo sapiens, MTT) [µM] | SMILES | inhibition at 10 µM ([1]; Homo sapiens, 10 μM, MTT) [%] | inhibition at 30 µM ([1]; Homo sapiens, 30 μM, MTT) [%] | inhibition at 10 µM ([2]; 10 μM, MTT) [%] | inhibition at 30 µM ([2]; 30 μM, MTT) [%] | inhibition at 10 µM [3, 13] [%] | inhibition at 30 µM [3, 14] [%] | further results
 | C=Cc1cc(O)cc2c1-c1cc(-c3cc4c(c(C)c3O)CCc3cc(O)cc(C=C)c3-4)c(O)c(C)c1CC2 [Compound 8, effususin A] | < 10 | 10.4 ± 0.47 | < 10 | 14.4 ± 1.48 | < 10 | 72.7 ± 1.82 | 
 | Cc1c(O)ccc2c1CCc1cc(O)cc(C=O)c1-2 [2,7-dihydroxy-1-methyl-5-aldehyde-9,10-dihydrophenanthrene] |  |  |  |  |  |  | IC50 [4]: 9.17 µM; IC50 [5]: 19.6 µM
 | C=Cc1cc(O)cc2ccc3c(C)c(O)ccc3c12 [Compound 9, dehydroeffusol] |  |  |  |  |  |  | IC50 ([1]; Homo sapiens): 7.75 µM; inhibition at 10 µM ([1]; Homo sapiens): 75.2 ± 2.48%; inhibition at 30 µM ([1]; Homo sapiens): 96.5 ± 0.32%; inhibition at 10 µM [2]: < 10%; inhibition at 30 µM [2]: 28.7 ± 2.01%; inhibition at 10 µM ([3]; Homo sapiens, A2780, 72 h): < 10%; inhibition at 30 µM ([3]; Homo sapiens, A2780, 72 h): 57.3 ± 2.58%
1.86 | C=Cc1c(C)c(O)cc2c1-c1cc(-c3cc4c(c(C)c3O)CCc3cc(O)c(C)c(C=C)c3-4)c(O)c(C)c1CC2 [Compound 2, compressin B] | 92.03 ± 0.44 | 92.38 ± 0.15 | < 10 | 32.8 ± 0.88 | < 10 | 64.8 ± 1.95 | 
 | Nc1nc2c(ncn2COCCO)c(=O)[nH]1 [acyclovir] |  |  |  |  |  |  | reduction of HSV-2 yield [6]: 1–5.06 log10
3.68 | C=Cc1cc(O)cc2c1-c1ccc(O)c(C)c1CC2 [Compound 3, effusol] | 96.37 ± 0.28 | 97.77 ± 0.27 | < 10 | < 10 | < 10 | 50.5 ± 1.59 | 
 | N.N.[Cl][Pt][Cl] [Cisplatin, reference compound] |  |  |  |  |  |  | Growth Inhibition (%) ± SEM ([1]; 10 μM, MTT): 42.61 ± 2.33%; Growth Inhibition (%) ± SEM ([1]; 30 μM, MTT): 99.93 ± 0.26%; IC50 ([1]; MTT): 12.4 µM; Growth Inhibition (%) ± SEM ([2]; 10 μM, MTT): 88.64 ± 0.50%; Growth Inhibition (%) ± SEM ([2]; 30 μM, MTT): 90.18 ± 7.78%; IC50 ([2]; MTT, read-out: Calculated IC50 Value): 7.84 µM; Growth Inhibition (%) ± SEM ([3]; A2780, 10 μM, 72 h, MTT): 83.57 ± 1.21%; Growth Inhibition (%) ± SEM ([3]; A2780, 30 μM, 72 h, MTT): 95.02 ± 0.28%; IC50 ([3]; A2780, 72 h, MTT): 1.3 µM
 | Cc1c(O)ccc2c1ccc1cc(O)cc(C=O)c12 [Dehydroeffusal] |  |  |  |  |  |  | IC50 [7]: 12.4 µM; IC50 [8]: 13.1 µM
11.3 | C=Cc1c(C)c(O)cc2c1-c1ccc(OC)c(C)c1CC2 [Compound 1, compressin A] | 41.7 ± 1.1 | 93.73 ± 0.36 | < 10 | 38.6 ± 0.78 | 47.6 ± 1.58 | 73 ± 0.47 | IC50 ([3]; Homo sapiens, A2780, 72 h, MTT): 13.2 µM
10.7 | C=Cc1cc(O)cc2c1-c1ccc(OC)c(C)c1CC2 [Compound 7, 7-hydroxy-1-methyl-2-methoxy-5-vinyl-9,10-dihydrophenanthrene] | 45.4 ± 1.57 | 92.36 ± 0.23 | 14.2 ± 0.98 | 29.5 ± 3.36 | < 10 | 63.2 ± 2.54 | 
 | C=Cc1cc(O)cc2c1-c1cc(-c3c(O)cc(C=C)c4c3ccc3c(C)c(O)ccc34)c(O)c(C)c1CC2 [effususin B] |  |  |  |  |  |  | IC50 [9]: 12.9 µM; IC50 [10]: 12.5 µM; IC50 [11]: 13.6 µM
 | COC(C)c1cc(O)cc2ccc3c(C)c(O)ccc3c12 (stereo not drawn) [5-(1-methoxyethyl)-1-methyl-phenanthren-2,7-diol] |  |  |  |  |  |  | IC50 [12]: 10.9 µM
 | CC(=O)O[C@H]1C(=O)[C@@]2(C)[C@H]([C@H](OC(=O)c3ccccc3)[C@]3(O)C[C@H](OC(=O)[C@H](O)[C@@H](NC(=O)c4ccccc4)c4ccccc4)C(C)=C1C3(C)C)[C@]1(OC(C)=O)CO[C@@H]1C[C@@H]2O [paclitaxel, reference compound] |  |  |  |  |  |  | IC50 [9]: 36.8 µM; IC50 [10]: 28.6 µM; IC50 [11]: 0.09 µM
 | COC(C)c1cc(O)cc2c1-c1ccc(O)c(C)c1CC2 (stereo not drawn) [Compound 4, effususol] | < 10 | 30.4 ± 1.91 | < 10 | 14.2 ± 2.75 | 18.3 ± 0.42 | 72 ± 1.06 | 
4.17 | C=Cc1cc(CO)cc2c1-c1ccc(O)c(C)c1CC2 [Compound 6, 2-hydroxy-1-methyl-7-oxymethylene-5-vinyl-9,10-dihydrophenanthrene] | 96.8 ± 0.28 | 98.77 ± 0.24 | < 10 | 10.2 ± 1.47 | < 10 | < 10 | 
 | COc1cccc2c1C(=O)c1c(O)c3c(c(O)c1C2=O)C[C@@](O)(C(=O)CO)C[C@@H]3O[C@H]1C[C@H](N)[C@H](O)[C@H](C)O1 [adriamycin, reference compound] |  |  |  |  |  |  | IC50 [4]: 0.406 µM; IC50 [5]: 0.539 µM
